Reference: patent US8426447B2, “Spiro-tricyclic ring compounds as beta-secretase modulators and methods of use” (Amgen Inc., priority 2008, dated 2013)

Experiments:
BACE1 [1] = target: T1, BACE1 (Homo sapiens, UniProt P56817); experiment: In Vitro Enzymatic BACE FRET (Fluorescence Resonance Energy Transfer) Assay; assay type: biochemical; settings: read-out: BACE1 FRET assay
Summary of the method: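 Run in 0.05 M acetate pH 4.2 with 10% DMSO final and 100 uM genapol detergent below its CMC. Reaction was started with 50 nM FRET peptide substrate (fluorophore and quencher flanking the BACE cleavage site), incubated one hour, stopped with Tris to neutral pH, and fluorescence read.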

BACE1 [2] = target: T1, BACE1; experiment: In Vitro BACE Cell-based Assay (HEK cell assay): Aβ40 in conditioned medium of cells stably expressing Amyloid Precursor Protein, sandwich ELISA; settings: read-out: HEK cell assay
Summary of the method: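 Read-out is time-resolved fluorescence of Aβ40 in supernatant, captured by pAb40 and detected with biotinylated 6E10 plus Streptavidin-Europium. Cells stably expressing APP received compounds for 24 h over 10 concentrations starting at 100 μM or 10 μM, final DMSO 0.1%.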

[3] = in vitro BACE FRET enzyme assay, IC50 class symbols
[4] = HEK cell-based assay, Aβ40 in conditioned medium, IC50 class symbols

T1 sequence (P56817 46-501, species assumed): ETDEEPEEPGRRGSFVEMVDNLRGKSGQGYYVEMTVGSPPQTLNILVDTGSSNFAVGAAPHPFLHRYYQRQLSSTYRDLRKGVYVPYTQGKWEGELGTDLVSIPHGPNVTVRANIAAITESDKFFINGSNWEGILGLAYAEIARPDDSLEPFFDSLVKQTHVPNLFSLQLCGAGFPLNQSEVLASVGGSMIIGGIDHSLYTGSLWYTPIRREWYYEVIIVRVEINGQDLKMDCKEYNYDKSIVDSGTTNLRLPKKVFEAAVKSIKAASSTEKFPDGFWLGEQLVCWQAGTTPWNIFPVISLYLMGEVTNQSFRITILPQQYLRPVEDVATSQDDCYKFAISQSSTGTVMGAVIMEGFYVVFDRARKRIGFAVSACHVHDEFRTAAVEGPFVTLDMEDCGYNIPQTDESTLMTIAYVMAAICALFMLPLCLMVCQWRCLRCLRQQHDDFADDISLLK

Row | Compound | IC50 (BACE1 [1]) [µM] | IC50 (BACE1 [2]) [µM] | IC50 (BACE1 [1]; Table IV, class symbols) [µM] | IC50 (BACE1 [2]; Table IV, class symbols) [µM] | also measured
1 | CCOC1CN(c2ccc3c(c2)[C@]2(COC(N)=N2)c2cc(-c4cccnc4)ccc2O3)C1 [compound 415] | – | – | – | – | IC50 (BACE1 [1]; [3]): < 0.1 µM; IC50 (BACE1 [2]; [4]): < 0.1 µM
2 | NC1=N[C@@]2(CO1)c1cc(-c3cc(Cl)ccc3F)ccc1Oc1cnc(-c3cccnc3)cc12 [compound 367] | – | – | – | – | IC50 (BACE1 [1]; [3]): < 0.1 µM; IC50 (BACE1 [2]; [4]): < 0.1 µM
3 | COc1ccncc1-c1ccc2c(c1)[C@]1(COC(N)=N1)c1cc(OCC(C)(C)C)ccc1O2 [compound 778] | 1 to 5 | 1 to 5 | – | – | –
4 | Cc1cnc(F)c(-c2ccc3c(c2)[C@@]2(COC(N)=N2)c2cccnc2O3)c1 [compound 571] | – | – | 0.1 to 1 | 0.1 to 1 | –
5 | CC(C)(C)COc1ccc2c(c1)[C@]1(COC(N)=N1)c1cc(-c3ncc[nH]3)ccc1O2 [compound 979] | 0.1 to 1 | 1 to 5 | – | – | –
6 | NC1=N[C@@]2(CO1)c1cc(-c3cccnc3)ccc1Oc1c(F)cc(OCC(=O)C3CC3)cc12 [compound 387] | – | – | – | – | IC50 (BACE1 [1]; [3]): < 0.1 µM; IC50 (BACE1 [2]; [4]): < 0.1 µM
7 | CC(C)(C)COc1ccc2c(c1)[C@]1(COC(N)=N1)c1cc(C(=O)O)ccc1O2 [compound 861] | – | – | 1 to 5 | > 5 | –
8 | CC(C)(C)COc1ccc2c(c1)[C@]1(COC(N)=N1)c1cc(-c3ccc4[nH]ccc4c3)ccc1O2 [Example 73, (4S)-2′-(2,2-dimethylpropoxy)-7′-(1H-indol-5-yl)spiro[1,3-oxazole-4,9′-xanthen]-2-amine] | – | – | – | – | IC50 (BACE1 [1]; Table II): 0.1 to 1 µM; IC50 (BACE1 [2]; Table II, Aβ40, 24 h incubation): 1 to 5 µM
9 | CC(C)(O)C#Cc1ccc2c(c1)[C@@]1(COC(N)=N1)c1cc(Br)cnc1O2 [compound 173] | – | – | – | – | IC50 (BACE1 [1]; Table III, IC50's in uM ranges): 1 to 5 µM; IC50 (BACE1 [2]; Table III, IC50's in uM ranges): > 5 µM
10 | CC(C)(C)CCOc1nccc2c1[C@]1(COC(N)=N1)c1cc(-c3cncnc3)ccc1O2 [compound 984] | 0.1 to 1 | 0.1 to 1 | – | – | –
11 | COc1cc(F)c2c(c1)[C@@]1(COC(N)=N1)c1cc(-c3cncnc3)ccc1O2 [compound 582] | – | – | 1 to 5 | > 5 | –
12 | Cc1ccccc1-c1ccc2c(c1)[C@]1(COC(N)=N1)c1cc(-c3cncnc3)ccc1O2 [compound 220] | – | – | – | – | IC50 (BACE1 [1]; Table III, IC50's in uM ranges): < 0.1 µM; IC50 (BACE1 [2]; Table III, IC50's in uM ranges): 0.1 to 1 µM
13 | NC1=N[C@@]2(CO1)c1cc(-c3cccnc3)ccc1Oc1ccc(N3C[C@@H]4C[C@H]3CO4)cc12 [compound 564] | – | – | < 0.1 | < 0.1 | –
14 | CC(C)(C)COc1ccc2c(c1)[C@@]1(COC(N)=N1)c1cc(-c3ccc(F)nc3)cnc1O2 [compound 951] | < 0.1 | < 0.1 | – | – | –
15 | Cc1ccc(-n2ccc3c(c2=O)[C@@]2(COC(N)=N2)c2cc(-c4cccnc4)ccc2O3)cc1 [compound 503] | > 5 | – | – | – | IC50 (BACE1 [2]; HEK cells): 1 to 5 µM
16 | COC(C)(C)C#Cc1cnc2c(c1)[C@]1(COC(N)=N1)c1cc(-c3ccnc(F)c3)ccc1O2 [compound 687] | 1 to 5 | > 5 | – | – | –
17 | CC(C)(C)COc1ccc2c(c1)[C@@]1(CSC(N)=N1)c1cc(-c3cncnc3)ccc1O2 [compound 721] | < 0.1 | 1 to 5 | – | – | –
18 | NC1=N[C@@]2(CO1)c1cc(-c3cncnc3)ccc1Oc1ccc(C(F)(F)F)cc12 [compound 597] | – | – | 0.1 to 1 | 0.1 to 1 | –
19 | Cc1occc1-c1ccc2c(c1)[C@@]1(COC(N)=N1)c1cc(OCC(C)(C)C)ccc1O2 [compound 739] | 0.1 to 1 | 1 to 5 | – | – | –
20 | COc1ccc2c(c1)[C@]1(COC(N)=N1)c1cc(NC(=O)c3ccc(Cl)nc3)ccc1O2 [compound 617] | – | – | 1 to 5 | 1 to 5 | –
21 | CC(C)(O)C#Cc1ccc2c(c1)[C@@]1(COC(N)=N1)c1cc(-c3cccnc3)ccc1O2 [151b] | – | – | – | – | IC50 (BACE1 [1]; Table III, IC50's in uM ranges): < 0.1 µM; IC50 (BACE1 [2]; Table III, IC50's in uM ranges): < 0.1 µM
22 | CNCc1ccc(-c2ccc3c(c2)[C@]2(COC(N)=N2)c2cc(OCC(C)(C)C)ccc2O3)cc1 [compound 784] | 0.1 to 1 | 1 to 5 | – | – | –
23 | CC1(COc2cc3c(cc2F)Oc2ccc(-c4cncnc4)cc2[C@@]32COC(N)=N2)COC1 [compound 712] | < 0.1 | < 0.1 | – | – | –
24 | CC(=O)c1cc(-c2ccc3c(c2)[C@@]2(COC(N)=N2)c2cc(OCC(C)(C)C)ccc2O3)cs1 [compound 836] | – | – | 1 to 5 | 1 to 5 | –
25 | NC1=N[C@]2(CO1)c1cc(Br)ccc1Oc1ncccc12 [compound 600] | – | – | > 5 | > 5 | –
26 | NC1=N[C@@]2(CO1)c1cc(-c3ccccc3)ccc1Oc1ncc(N3CCOCC3)cc12 [compound 626] | – | – | < 0.1 | < 0.1 | –
